Values of other authors in patent publication US10098898B1, “Release stable mesalamine dosage forms” (Handa Pharmaceuticals, LLC, priority 2017, dated 2018).

Details: 1% aqueous solution

In the case of O=P([O-])([O-])O.[Na+].[Na+] [disodium hydrogen phosphate], the pH is given as “about 9.1”.
